Literature values as cited in PubChem BioAssay AID1259409 (Chemical Carcinogenesis Research Information System (CCRIS), 2018).

System: rodent chemically induced tumor inhibition, incidence and multiplicity
Experiment: CCRIS tumor inhibitor studies
Conditions: Dose [Inhibitor]: 0, Route [Inhibitor]: ORAL

COc1ccc(-c2cc(=O)c3c(O)cc(O[C@@H]4O[C@H](CO[C@@H]5O[C@@H](C)[C@H](O)[C@@H](O)[C@H]5O)[C@@H](O)[C@H](O)[C@H]4O)cc3o2)cc1O
tumour outcome (control, treated, inhibition, significance) (Carcinogen: 4-NITROQUINOLINE-1-OXIDE, 56-57-5, 1000 PPM IN DIET FOR 10 WK BEGINNING 1 WK PRIOR TO CARCINOGEN TREATMENT (STUDY DURATION: 32 WK), Species: RAT, Strain/Sex: F344/MALE, Target Tissue: Type of Lesion: TONGUE: PAPILLOMA, Dose [Carcinogen]: 20 PPM IN DRINKING WATER FOR 8 WK, Promoter: NONE USED): 8/17 (47%), 1/19 (5%), 89%, p<0.01
tumour outcome (control, treated, inhibition, significance) (Carcinogen: 4-NITROQUINOLINE-1-OXIDE, 56-57-5, 1000 PPM IN DIET FOR 10 WK BEGINNING 1 WK PRIOR TO CARCINOGEN TREATMENT (STUDY DURATION: 32 WK), Species: RAT, Strain/Sex: R344/MALE, Target Tissue: Type of Lesion: TONGUE: SQUAMOUS CELL CARCINOMA, Dose [Carcinogen]: 20 PPM IN DRINKING WATER FOR 8 WK, Promoter: NONE USED): 11/17 (65%), 4/19 (21%), 68%, p<0.01
tumour outcome (control, treated, inhibition, significance) (Carcinogen: 4-NITROQUINOLINE-1-OXIDE, 56-57-5, 1000 PPM IN DIET FOR 22 WK BEGINNING 1 WK POST CARCINOGEN TREATMENT (STUDY DURATION: 32 WK), Species: RAT, Strain/Sex: F344/MALE, Target Tissue: Type of Lesion: TONGUE: PAPILLOMA, Dose [Carcinogen]: 20 PPM IN DRINKING WATER FOR 8 WK, Promoter: NONE USED): 8/17 (47%), 2/20 (10%), 79%, p<0.05
tumour outcome (control, treated, inhibition, significance) (Carcinogen: 4-NITROQUINOLINE-1-OXIDE, 56-57-5, 1000 PPM IN DIET FOR 22 WK BEGINNING 1 WK POST CARCINOGEN TREATMENT (STUDY DURATION: 32 WK), Species: RAT, Strain/Sex: F344/MALE, Target Tissue: Type of Lesion: TONGUE: SQUAMOUS CELL CARCINOMA, Dose [Carcinogen]: 20 PPM IN DRINKING WATER FOR 8 WK, Promoter: NONE USED): 11/17 (65%), 3/20 (15%), 77%, p<0.05
tumour outcome (control, treated, inhibition, significance) (Carcinogen: AZOXYMETHANE, 25843-45-2, 0.1% IN DIET FOR 4 WK BEGINNING 1 WK PRIOR TO CARCINOGEN TREATMENT (STUDY DURATION: 32 WK), Species: RAT, Strain/Sex: F344/MALE, Target Tissue: Type of Lesion: COLON: ADENOCARCINOMA, Dose [Carcinogen]: 15 MG/KG BW 1/WK FOR 3 WK, Promoter: NONE): 70%, 22%, 69%, p<0.005
tumour outcome (control, treated, inhibition, significance) (Carcinogen: AZOXYMETHANE, 25843-45-2, 0.1% IN DIET FOR 28 WK BEGINNING 1 WK POST LAST CARCINOGEN DOSE (STUDY DURATION: 32 WK), Species: RAT, Strain/Sex: F344/MALE, Target Tissue: Type of Lesion: COLON: ADENOCARCINOMA, Dose [Carcinogen]: 15 MG/KG BW 1/WK FOR 3 WK, Promoter: NONE): 70%, 5%, 93%, p<0.001
tumour outcome (control, treated, inhibition, significance) (Carcinogen: AZOXYMETHANE, 25843-45-2, 1000 PPM IN DIET FOR 4 WK BEGINNING 1 WK PRIOR TO CARCINOGEN TREATMENT (STUDY DURATION: 32 WK), Species: RAT, Strain/Sex: F344/MALE, Target Tissue: Type of Lesion: LARGE INTESTINE: TUMOR, Dose [Carcinogen]: 15 MG/KG BW 1/WK FOR 3 WK, Promoter: NONE USED): 12/17 (71%), 5/19 (26%), 63%, p<0.01
tumour outcome (control, treated, inhibition, significance) (Carcinogen: AZOXYMETHANE, 25843-45-2, 1000 PPM IN DIET FOR 4 WK BEGINNING 1 WK PRIOR TO CARCINOGEN TREATMENT (STUDY DURATION: 32 WK), Species: RAT, Strain/Sex: F344/MALE, Target Tissue: Type of Lesion: SMALL INTESTINE: TUMOR, Dose [Carcinogen]: 15 MG/KG BW 1/WK FOR 3 WK, Promoter: NONE USED): 5/17 (29%), 0/19 (0%), 100%, p<0.05
tumour outcome (control, treated, inhibition, significance) (Carcinogen: AZOXYMETHANE, 25843-45-2, 1000 PPM IN DIET FOR 28 WK BEGINNING 1 WK POST CARCINOGEN TREATMENT (STUDY DURATION: 32 WK), Species: RAT, Strain/Sex: F344/MALE, Target Tissue: Type of Lesion: LARGE INTESTINE: TUMOR, Dose [Carcinogen]: 15 MG/KG BW 1/WK FOR 3 WK, Promoter: NONE USED): 12/17 (71%), 3/20 (15%), 79%, p<0.001
tumour outcome (control, treated, inhibition, significance) (Carcinogen: AZOXYMETHANE, 25843-45-2, 1000 PPM IN DIET FOR 28 WK BEGINNING 1 WK POST CARCINOGEN TREATMENT (STUDY DURATION: 32 WK), Species: RAT, Strain/Sex: F344/MALE, Target Tissue: Type of Lesion: SMALL INTESTINE: TUMOR, Dose [Carcinogen]: 15 MG/KG BW 1/WK FOR 3 WK, Promoter: NONE USED): 5/17 (29%), 2/20 (10%), 66%, not significant
tumour outcome (control, treated, inhibition, significance) (Carcinogen: N-BUTYL-N-(4-HYDROXYBUTYL)NITROSAMINE, 3817-11-6, 1000 PPM IN DIET FOR 8 WK BEGINNING 1 WK PRIOR TO CARCINOGEN TREATMENT (STUDY DURATION: 32 WK), Species: MOUSE, Strain/Sex: ICR/MALE, Target Tissue: Type of Lesion: URINARY BLADDER: PAPILLOMA, Dose [Carcinogen]: 500 PPM IN DRINKING WATER FOR 6 WK, Promoter: NONE USED): 5/26 (19%), 4/24 (17%), 11%, not significant
tumour outcome (control, treated, inhibition, significance) (Carcinogen: N-BUTYL-N-(4-HYDROXYBUTYL)NITROSAMINE, 3817-11-6, 1000 PPM IN DIET FOR 8 WK BEGINNING 1 WK PRIOR TO CARCINOGEN TREATMENT (STUDY DURATION: 32 WK), Species: MOUSE, Strain/Sex: ICR/MALE, Target Tissue: Type of Lesion: URINARY BLADDER: TRANSITIONAL CELL CARCINOMA, Dose [Carcinogen]: 500 PPM IN DRINKING WATER FOR 6 WK, Promoter: NONE USED): 16/26 (62%), 5/24 (21%), 66%, p<0.005
tumour outcome (control, treated, inhibition, significance) (Carcinogen: N-BUTYL-N-(4-HYDROXYBUTYL)NITROSAMINE, 3817-11-6, 1000 PPM IN DIET FOR 24 WK BEGINNING 1 WK POST CARCINOGEN TREATMENT (STUDY DURATION: 32 WK), Species: MOUSE, Strain/Sex: ICR/MALE, Target Tissue: Type of Lesion: URINARY BLADDER: PAPILLOMA, Dose [Carcinogen]: 500 PPM IN DRINKING WATER FOR 6 WK, Promoter: NONE USED): 5/26 (19%), 3/24 (13%), 32%, not significant
tumour outcome (control, treated, inhibition, significance) (Carcinogen: N-BUTYL-N-(4-HYDROXYBUTYL)NITROSAMINE, 3817-11-6, 1000 PPM IN DIET FOR 24 WK BEGINNING 1 WK POST CARCINOGEN TREATMENT (STUDY DURATION: 32 WK), Species: MOUSE, Strain/Sex: ICR/MALE, Target Tissue: Type of Lesion: URINARY BLADDER: TRANSITIONAL CELL CARCINOMA, Dose [Carcinogen]: 500 PPM IN DRINKING WATER FOR 6 WK, Promoter: NONE USED): 16/26 (62%), 2/24 (8%), 87%, p<0.0001
tumour outcome (control, treated, inhibition, significance) (Carcinogen: N-METHYL-N-AMYLNITROSAMINE, 13256-07-0, 1000 PPM IN DIET FOR 7 WK BEGINNING 1 WK POST CARCINOGEN TREATMENT (STUDY DURATION: 20 WK), Species: RAT, Strain/Sex: WISTAR/MALE, Target Tissue: Type of Lesion: ESOPHAGUS: SQUAMOUS CELL CARCINOMA, Dose [Carcinogen]: 12.5 MG/KG BW 1/WK FOR 12 WK, Promoter: NONE USED): 75%, 39%, 48%, not significant
tumour outcome (control, treated, inhibition, significance) (Carcinogen: N-METHYL-N-AMYLNITROSAMINE, 13256-07-0, 1000 PPM IN DIET FOR 7 WK BEGINNING 1 WK POST CARCINOGEN TREATMENT (STUDY DURATION: 20 WK), Species: RAT, Strain/Sex: WISTAR/MALE, Target Tissue: Type of Lesion: ESOPHAGUS: SQUAMOUS CELL PAPILLOMA, Dose [Carcinogen]: 12.5 MG/KG BW 1/WK FOR 12 WK, Promoter: NONE USED): 100%, 100%, 0%, not significant
tumour outcome (control, treated, inhibition, significance) (Carcinogen: N-METHYL-N-AMYLNITROSAMINE, 13256-07-0, 1000 PPM IN DIET FOR 7 WK BEGINNING 1 WK POST CARCINOGEN TREATMENT (STUDY DURATION: 20 WK), Species: RAT, Strain/Sex: WISTAR/MALE, Target Tissue: Type of Lesion: TONGUE: SQUAMOUS CELL CARCINOMA, Dose [Carcinogen]: 12.5 MG/KG BW 1/WK FOR 12 WK, Promoter: NONE USED): 17%, 0%, 100%, not calculated
tumour outcome (control, treated, inhibition, significance) (Carcinogen: N-METHYL-N-AMYLNITROSAMINE, 13256-07-0, 1000 PPM IN DIET FOR 7 WK BEGINNING 1 WK POST CARCINOGEN TREATMENT (STUDY DURATION: 20 WK), Species: RAT, Strain/Sex: WISTAR/MALE, Target Tissue: Type of Lesion: TONGUE: SQUAMOUS CELL PAPILLOMA, Dose [Carcinogen]: 12.5 MG/KG BW 1/WK FOR 12 WK, Promoter: NONE USED): 33%, 11%, 67%, not calculated
tumour outcome (control, treated, inhibition, significance) (Carcinogen: N-METHYL-N-AMYLNITROSAMINE, 13256-07-0, 1000 PPM IN DIET FOR 13 WK BEGINNING 1 WK PRIOR TO CARCINOGEN TREATMENT (STUDY DURATION: 20 WK), Species: RAT, Strain/Sex: WISTAR/MALE, Target Tissue: Type of Lesion: ESOPHAGUS: SQUAMOUS CELL CARCINOMA, Dose [Carcinogen]: 12.5 MG/KG BW 1/WK FOR 12 WK, Promoter: NONE USED): 75%, 29%, 61%, p<0.05
tumour outcome (control, treated, inhibition, significance) (Carcinogen: N-METHYL-N-AMYLNITROSAMINE, 13256-07-0, 1000 PPM IN DIET FOR 13 WK BEGINNING 1 WK PRIOR TO CARCINOGEN TREATMENT (STUDY DURATION: 20 WK), Species: RAT, Strain/Sex: WISTAR/MALE, Target Tissue: Type of Lesion: ESOPHAGUS: SQUAMOUS CELL PAPILLOMA, Dose [Carcinogen]: 12.5 MG/KG BW 1/WK FOR 12 WK, Promoter: NONE USED): 100%, 100%, 0%, not significant
tumour outcome (control, treated, inhibition, significance) (Carcinogen: N-METHYL-N-AMYLNITROSAMINE, 13256-07-0, 1000 PPM IN DIET FOR 13 WK BEGINNING 1 WK PRIOR TO CARCINOGEN TREATMENT (STUDY DURATION: 20 WK), Species: RAT, Strain/Sex: WISTAR/MALE, Target Tissue: Type of Lesion: TONGUE: SQUAMOUS CELL CARCINOMA, Dose [Carcinogen]: 12.5 MG/KG BW 1/WK FOR 12 WK, Promoter: NONE USED): 17%, 0%, 100%, not calculated
tumour outcome (control, treated, inhibition, significance) (Carcinogen: N-METHYL-N-AMYLNITROSAMINE, 13256-07-0, 1000 PPM IN DIET FOR 13 WK BEGINNING 1 WK PRIOR TO CARCINOGEN TREATMENT (STUDY DURATION: 20 WK), Species: RAT, Strain/Sex: WISTAR/MALE, Target Tissue: Type of Lesion: TONGUE: SQUAMOUS CELL PAPILLOMA, Dose [Carcinogen]: 12.5 MG/KG BW 1/WK FOR 12 WK, Promoter: NONE USED): 33%, 6%, 82%, not calculated
